Data from article PMC6891286, “Towards the Development of an In vivo Chemical Probe for Cyclin G Associated Kinase (GAK)” (Molecules, 2019).

How the values were obtained:
Assay in all cases: KINOMEscan
Type in all cases: binding
[1] = target: T1, ABL1(F317I)-phosphorylated (Homo sapiens, UniProt P00519, F317I); conditions: 35 at 1 µM; read-out: % inhibition
T1 construct: purchased Eurofins DiscoverX (KINOMEscan)
Method: (§1) KinomeScan Assay on 35 was performed as previously described at EuroFins DiscoverX (Fremont, CA, USA).

[2] = target: T2, ABL1(F317L)-phosphorylated (Homo sapiens, UniProt P00519, F317L); conditions: 35 at 1 µM; read-out: % inhibition
T2 construct: purchased Eurofins DiscoverX (KINOMEscan)
Method: as §1

ABL1-phosphorylated = target: T3, ABL1-phosphorylated (Homo sapiens, UniProt P00519); conditions: 35 at 1 µM; read-out: % inhibition
T3 construct: purchased Eurofins DiscoverX (KINOMEscan)
Method: as §1

ACVR2A = target: T4, ACVR2A (Homo sapiens, UniProt P27037); conditions: 35 at 1 µM; read-out: % inhibition
T4 construct: purchased Eurofins DiscoverX (KINOMEscan)
Method: as §1

AXL = target: T5, AXL (Homo sapiens, UniProt P30530); conditions: 35 at 1 µM; read-out: % inhibition
T5 construct: purchased Eurofins DiscoverX (KINOMEscan)
Method: as §1

BUB1 = target: T6, BUB1 (Homo sapiens, UniProt O43683); conditions: 35 at 1 µM; read-out: % inhibition
T6 construct: purchased Eurofins DiscoverX (KINOMEscan)
Method: as §1

CASK = target: T7, CASK (Homo sapiens, UniProt O14936); conditions: 35 at 1 µM; read-out: % inhibition
T7 construct: purchased Eurofins DiscoverX (KINOMEscan)
Method: as §1

CSNK1E = target: T8, CSNK1E (Homo sapiens, UniProt P49674); conditions: 35 at 1 µM; read-out: % inhibition
T8 construct: purchased Eurofins DiscoverX (KINOMEscan)
Method: as §1

DMPK2 = target: T9, DMPK2 (Homo sapiens, UniProt Q6DT37); conditions: 35 at 1 µM; read-out: % inhibition
T9 construct: purchased Eurofins DiscoverX (KINOMEscan)
Method: as §1

EGFR(L858R) = target: T10, EGFR(L858R) (Homo sapiens, UniProt P00533, L858R); conditions: 35 at 1 µM; read-out: % inhibition
T10 construct: purchased Eurofins DiscoverX (KINOMEscan)
Method: as §1

ERBB4 = target: T11, ERBB4 (Homo sapiens, UniProt Q15303); conditions: 35 at 1 µM; read-out: % inhibition
T11 construct: purchased Eurofins DiscoverX (KINOMEscan)
Method: as §1

ERK8 = target: T12, ERK8 (Homo sapiens, UniProt Q8TD08); conditions: 35 at 1 µM; read-out: % inhibition
T12 construct: purchased Eurofins DiscoverX (KINOMEscan)
Method: as §1

FER = target: T13, FER (Homo sapiens, UniProt P16591); conditions: 35 at 1 µM; read-out: % inhibition
T13 construct: purchased Eurofins DiscoverX (KINOMEscan)
Method: as §1

GCN2(Kin.Dom.2,S808G) = target: T14, GCN2(Kin.Dom.2,S808G) (Homo sapiens, UniProt Q9P2K8, S808G); conditions: 35 at 1 µM; read-out: % inhibition
T14 construct: GCN2(Kin.Dom.2,S808G); purchased Eurofins DiscoverX (KINOMEscan)
Method: as §1

GRK4 = target: T15, GRK4 (Homo sapiens, UniProt P32298); conditions: 35 at 1 µM; read-out: % inhibition
T15 construct: purchased Eurofins DiscoverX (KINOMEscan)
Method: as §1

GSK3B = target: T16, GSK3B (Homo sapiens, UniProt P49841); conditions: 35 at 1 µM; read-out: % inhibition
T16 construct: purchased Eurofins DiscoverX (KINOMEscan)
Method: as §1

HUNK = target: T17, HUNK (Homo sapiens, UniProt P57058); conditions: 35 at 1 µM; read-out: % inhibition
T17 construct: purchased Eurofins DiscoverX (KINOMEscan)
Method: as §1

IRAK3 = target: T18, IRAK3 (Homo sapiens, UniProt Q9Y616); conditions: 35 at 1 µM; read-out: % inhibition
T18 construct: purchased Eurofins DiscoverX (KINOMEscan)
Method: as §1

KIT(V559D) = target: T19, KIT(V559D) (Homo sapiens, UniProt P10721, V559D); conditions: 35 at 1 µM; read-out: % inhibition
T19 construct: purchased Eurofins DiscoverX (KINOMEscan)
Method: as §1

LRRK2(G2019S) = target: T20, LRRK2(G2019S) (Homo sapiens, UniProt Q5S007, G2019S); conditions: 35 at 1 µM; read-out: % inhibition
T20 construct: purchased Eurofins DiscoverX (KINOMEscan)
Method: as §1

MAPKAPK5 = target: T21, MAPKAPK5 (Homo sapiens, UniProt Q8IW41); conditions: 35 at 1 µM; read-out: % inhibition
T21 construct: purchased Eurofins DiscoverX (KINOMEscan)
Method: as §1

MEK5 = target: T22, MEK5 (Homo sapiens, UniProt Q13163)
T22 construct: purchased Eurofins DiscoverX (KINOMEscan)
Method: as §1

MERTK = target: T23, MERTK (Homo sapiens, UniProt Q12866); conditions: 35 at 1 µM; read-out: % inhibition
T23 construct: purchased Eurofins DiscoverX (KINOMEscan)
Method: as §1

MET(Y1235D) = target: T24, MET(Y1235D) (Homo sapiens, UniProt P08581, Y1235D); conditions: 35 at 1 µM; read-out: % inhibition
T24 construct: purchased Eurofins DiscoverX (KINOMEscan)
Method: as §1

MKK7 = target: T25, MKK7 (Homo sapiens, UniProt O14733); conditions: 35 at 1 µM; read-out: % inhibition
T25 construct: purchased Eurofins DiscoverX (KINOMEscan)
Method: as §1

MKNK1 = target: T26, MKNK1 (Homo sapiens, UniProt Q9BUB5); conditions: 35 at 1 µM; read-out: % inhibition
T26 construct: purchased Eurofins DiscoverX (KINOMEscan)
Method: as §1

MLK3 = target: T27, MLK3 (Homo sapiens, UniProt Q16584); conditions: 35 at 1 µM; read-out: % inhibition
T27 construct: purchased Eurofins DiscoverX (KINOMEscan)
Method: as §1

MRCKA = target: T28, MRCKA (Homo sapiens, UniProt Q5VT25); conditions: 35 at 1 µM; read-out: % inhibition
T28 construct: purchased Eurofins DiscoverX (KINOMEscan)
Method: as §1

NDR2 = target: T29, NDR2 (Homo sapiens, UniProt Q9Y2H1); conditions: 35 at 1 µM; read-out: % inhibition
T29 construct: purchased Eurofins DiscoverX (KINOMEscan)
Method: as §1

PAK2 = target: T30, PAK2 (Homo sapiens, UniProt Q13177); conditions: 35 at 1 µM; read-out: % inhibition
T30 construct: purchased Eurofins DiscoverX (KINOMEscan)
Method: as §1

PCTK3 = target: T31, PCTK3 (Homo sapiens, UniProt Q07002); conditions: 35 at 1 µM; read-out: % inhibition
T31 construct: purchased Eurofins DiscoverX (KINOMEscan)
Method: as §1

PFCDPK1(P.falciparum) = target: T32, PFCDPK1(P.falciparum) (Plasmodium falciparum, UniProt P62344); conditions: read-out: % inhibition
T32 construct: purchased Eurofins DiscoverX (KINOMEscan)
Method: as §1

PHKG1 = target: T33, PHKG1 (Homo sapiens, UniProt Q16816); conditions: 35 at 1 µM; read-out: % inhibition
T33 construct: purchased Eurofins DiscoverX (KINOMEscan)
Method: as §1

PIK3C2G = target: T34, PIK3C2G (Homo sapiens, UniProt O75747); conditions: 35 at 1 µM; read-out: % inhibition
T34 construct: purchased Eurofins DiscoverX (KINOMEscan)
Method: as §1

PIK3CA(E542K) = target: T35, PIK3CA(E542K) (Homo sapiens, UniProt P42336, E542K); conditions: 35 at 1 µM; read-out: % inhibition
T35 construct: purchased Eurofins DiscoverX (KINOMEscan)
Method: as §1

RIPK1 = target: T36, RIPK1 (Homo sapiens, UniProt Q13546); conditions: 35 at 1 µM; read-out: % inhibition
T36 construct: purchased Eurofins DiscoverX (KINOMEscan)
Method: as §1

[3] = target: T37, RSK1(Kin.Dom.1-N-terminal) (Homo sapiens, UniProt Q15418); conditions: 35 at 1 µM; read-out: % inhibition
T37 construct: RSK1(Kin.Dom.1-N-terminal); purchased Eurofins DiscoverX (KINOMEscan)
Method: as §1

SRPK2 = target: T38, SRPK2 (Homo sapiens, UniProt P78362); conditions: 35 at 1 µM; read-out: % inhibition
T38 construct: purchased Eurofins DiscoverX (KINOMEscan)
Method: as §1

SRPK3 = target: T39, SRPK3 (Homo sapiens, UniProt Q9UPE1); conditions: 35 at 1 µM; read-out: % inhibition
T39 construct: purchased Eurofins DiscoverX (KINOMEscan)
Method: as §1

WNK2 = target: T40, WNK2 (Homo sapiens, UniProt Q9Y3S1); conditions: 35 at 1 µM; read-out: % inhibition
T40 construct: purchased EuroFins DiscoverX (Fremont, CA, USA)
Method: as §1

WNK4 = target: T41, WNK4 (Homo sapiens, UniProt Q96J92); conditions: 35 at 1 µM; read-out: % inhibition
T41 construct: purchased EuroFins DiscoverX (Fremont, CA, USA)
Method: as §1

T22 sequence (Q13163 whole entry): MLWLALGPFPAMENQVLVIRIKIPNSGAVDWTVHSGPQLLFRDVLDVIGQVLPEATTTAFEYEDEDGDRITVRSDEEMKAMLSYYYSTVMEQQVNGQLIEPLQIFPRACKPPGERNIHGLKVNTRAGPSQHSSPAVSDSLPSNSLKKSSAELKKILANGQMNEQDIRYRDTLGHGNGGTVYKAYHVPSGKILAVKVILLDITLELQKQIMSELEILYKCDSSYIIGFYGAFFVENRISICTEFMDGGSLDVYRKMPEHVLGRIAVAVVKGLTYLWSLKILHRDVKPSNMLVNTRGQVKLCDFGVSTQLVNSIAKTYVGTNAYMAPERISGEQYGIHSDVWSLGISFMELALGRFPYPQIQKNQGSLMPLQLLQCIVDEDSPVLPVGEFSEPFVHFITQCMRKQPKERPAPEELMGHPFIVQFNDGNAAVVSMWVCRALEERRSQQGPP
T20 sequence (Q5S007 whole entry G2019S): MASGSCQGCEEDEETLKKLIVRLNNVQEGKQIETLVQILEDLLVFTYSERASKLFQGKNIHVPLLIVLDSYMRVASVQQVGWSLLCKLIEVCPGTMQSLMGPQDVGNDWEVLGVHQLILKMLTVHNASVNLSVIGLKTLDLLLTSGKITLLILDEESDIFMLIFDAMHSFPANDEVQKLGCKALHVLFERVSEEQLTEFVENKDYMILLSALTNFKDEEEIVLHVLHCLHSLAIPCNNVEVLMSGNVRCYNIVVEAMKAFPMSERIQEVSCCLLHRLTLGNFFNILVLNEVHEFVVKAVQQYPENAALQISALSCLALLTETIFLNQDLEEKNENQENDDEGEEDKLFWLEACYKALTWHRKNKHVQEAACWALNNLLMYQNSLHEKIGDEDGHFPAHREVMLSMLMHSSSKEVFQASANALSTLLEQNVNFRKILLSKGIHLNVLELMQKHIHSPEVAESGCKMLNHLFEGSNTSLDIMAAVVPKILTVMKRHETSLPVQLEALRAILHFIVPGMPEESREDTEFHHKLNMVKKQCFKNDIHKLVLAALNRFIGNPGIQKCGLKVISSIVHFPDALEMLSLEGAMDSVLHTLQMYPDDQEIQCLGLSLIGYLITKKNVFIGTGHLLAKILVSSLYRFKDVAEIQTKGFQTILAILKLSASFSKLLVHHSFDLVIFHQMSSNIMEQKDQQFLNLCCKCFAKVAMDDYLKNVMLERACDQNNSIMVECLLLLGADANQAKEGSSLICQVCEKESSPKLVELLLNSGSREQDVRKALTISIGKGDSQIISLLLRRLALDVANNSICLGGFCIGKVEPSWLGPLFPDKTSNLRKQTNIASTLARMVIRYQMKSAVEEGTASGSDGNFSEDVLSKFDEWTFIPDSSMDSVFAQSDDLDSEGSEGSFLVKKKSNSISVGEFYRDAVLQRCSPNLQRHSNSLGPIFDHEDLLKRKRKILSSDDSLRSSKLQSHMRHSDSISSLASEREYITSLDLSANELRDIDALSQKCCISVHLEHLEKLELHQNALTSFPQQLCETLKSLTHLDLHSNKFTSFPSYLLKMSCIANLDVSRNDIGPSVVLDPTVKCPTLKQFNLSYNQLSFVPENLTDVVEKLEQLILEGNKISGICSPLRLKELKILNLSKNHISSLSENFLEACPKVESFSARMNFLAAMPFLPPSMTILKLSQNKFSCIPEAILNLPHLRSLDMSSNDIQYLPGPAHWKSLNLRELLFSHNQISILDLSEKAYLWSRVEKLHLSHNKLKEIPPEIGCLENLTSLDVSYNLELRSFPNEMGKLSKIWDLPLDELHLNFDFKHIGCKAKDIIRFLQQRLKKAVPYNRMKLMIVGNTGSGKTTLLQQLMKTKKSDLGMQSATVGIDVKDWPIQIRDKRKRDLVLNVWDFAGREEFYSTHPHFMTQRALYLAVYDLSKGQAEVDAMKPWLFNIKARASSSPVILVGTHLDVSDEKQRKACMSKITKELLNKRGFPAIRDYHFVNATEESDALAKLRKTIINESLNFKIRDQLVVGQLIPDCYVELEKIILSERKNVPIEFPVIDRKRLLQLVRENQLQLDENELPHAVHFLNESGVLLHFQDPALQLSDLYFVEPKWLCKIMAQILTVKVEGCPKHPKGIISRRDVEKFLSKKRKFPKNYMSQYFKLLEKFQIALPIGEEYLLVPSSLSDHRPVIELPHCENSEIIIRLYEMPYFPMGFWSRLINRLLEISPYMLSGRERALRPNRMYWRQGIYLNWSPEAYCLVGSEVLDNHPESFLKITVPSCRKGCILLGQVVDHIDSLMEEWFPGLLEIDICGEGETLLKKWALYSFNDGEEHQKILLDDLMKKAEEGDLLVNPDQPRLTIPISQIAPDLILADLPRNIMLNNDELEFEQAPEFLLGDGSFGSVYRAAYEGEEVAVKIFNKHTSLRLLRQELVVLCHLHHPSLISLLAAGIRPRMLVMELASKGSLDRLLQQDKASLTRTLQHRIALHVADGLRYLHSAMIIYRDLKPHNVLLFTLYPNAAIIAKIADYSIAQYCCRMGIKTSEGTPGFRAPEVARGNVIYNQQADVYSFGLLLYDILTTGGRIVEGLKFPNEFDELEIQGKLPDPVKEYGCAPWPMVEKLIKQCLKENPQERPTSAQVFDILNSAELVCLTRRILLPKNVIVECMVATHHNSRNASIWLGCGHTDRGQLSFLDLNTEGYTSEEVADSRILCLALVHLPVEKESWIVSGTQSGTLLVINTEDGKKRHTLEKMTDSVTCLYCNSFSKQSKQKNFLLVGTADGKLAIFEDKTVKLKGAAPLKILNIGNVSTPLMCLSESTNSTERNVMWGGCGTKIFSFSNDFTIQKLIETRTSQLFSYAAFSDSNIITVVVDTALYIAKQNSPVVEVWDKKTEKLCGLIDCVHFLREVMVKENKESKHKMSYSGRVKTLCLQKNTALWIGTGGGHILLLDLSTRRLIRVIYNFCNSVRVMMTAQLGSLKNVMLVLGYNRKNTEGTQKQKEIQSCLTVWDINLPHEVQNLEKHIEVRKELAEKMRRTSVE
T2 sequence (P00519 whole entry F317L): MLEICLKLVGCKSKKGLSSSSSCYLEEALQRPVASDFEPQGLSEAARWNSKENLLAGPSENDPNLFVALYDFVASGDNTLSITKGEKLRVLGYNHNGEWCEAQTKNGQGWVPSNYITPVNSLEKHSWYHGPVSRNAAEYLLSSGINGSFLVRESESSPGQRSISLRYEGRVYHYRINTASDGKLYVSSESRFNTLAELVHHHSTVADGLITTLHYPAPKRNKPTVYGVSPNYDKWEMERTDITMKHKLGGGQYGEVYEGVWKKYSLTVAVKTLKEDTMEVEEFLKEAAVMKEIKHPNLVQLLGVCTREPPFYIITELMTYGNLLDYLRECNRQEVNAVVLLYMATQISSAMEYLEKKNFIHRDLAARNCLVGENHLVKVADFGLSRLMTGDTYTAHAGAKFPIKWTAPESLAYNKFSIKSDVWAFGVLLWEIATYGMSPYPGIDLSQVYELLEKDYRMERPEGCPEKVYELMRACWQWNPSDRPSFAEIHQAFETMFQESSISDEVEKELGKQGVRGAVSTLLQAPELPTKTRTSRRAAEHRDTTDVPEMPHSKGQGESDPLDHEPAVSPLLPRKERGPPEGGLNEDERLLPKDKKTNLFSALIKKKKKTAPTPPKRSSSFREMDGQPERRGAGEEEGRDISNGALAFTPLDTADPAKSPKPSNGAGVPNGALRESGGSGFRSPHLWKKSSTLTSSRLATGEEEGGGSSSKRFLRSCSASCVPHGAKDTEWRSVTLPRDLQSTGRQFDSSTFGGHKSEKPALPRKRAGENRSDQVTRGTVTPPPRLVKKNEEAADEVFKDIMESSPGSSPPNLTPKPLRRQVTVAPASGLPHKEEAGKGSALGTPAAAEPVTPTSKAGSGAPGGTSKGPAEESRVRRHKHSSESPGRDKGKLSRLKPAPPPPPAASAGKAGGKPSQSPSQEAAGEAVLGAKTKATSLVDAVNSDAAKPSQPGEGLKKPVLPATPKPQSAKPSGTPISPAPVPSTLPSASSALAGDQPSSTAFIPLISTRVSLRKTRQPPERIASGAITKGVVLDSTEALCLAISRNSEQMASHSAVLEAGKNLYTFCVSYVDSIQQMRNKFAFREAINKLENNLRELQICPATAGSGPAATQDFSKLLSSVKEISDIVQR
T31 sequence (Q07002 whole entry): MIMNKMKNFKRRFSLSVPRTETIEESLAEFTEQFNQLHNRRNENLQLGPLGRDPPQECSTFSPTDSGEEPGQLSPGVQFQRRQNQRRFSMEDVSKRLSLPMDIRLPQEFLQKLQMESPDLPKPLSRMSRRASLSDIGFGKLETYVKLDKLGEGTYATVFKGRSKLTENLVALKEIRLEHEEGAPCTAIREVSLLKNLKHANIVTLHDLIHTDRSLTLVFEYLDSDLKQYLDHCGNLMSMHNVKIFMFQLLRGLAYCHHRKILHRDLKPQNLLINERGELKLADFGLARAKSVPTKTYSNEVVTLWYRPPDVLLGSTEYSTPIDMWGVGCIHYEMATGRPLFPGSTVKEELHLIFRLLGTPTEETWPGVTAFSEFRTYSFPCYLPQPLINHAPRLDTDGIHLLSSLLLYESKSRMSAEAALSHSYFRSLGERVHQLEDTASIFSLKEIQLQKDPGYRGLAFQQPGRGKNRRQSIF
T29 sequence (Q9Y2H1 whole entry): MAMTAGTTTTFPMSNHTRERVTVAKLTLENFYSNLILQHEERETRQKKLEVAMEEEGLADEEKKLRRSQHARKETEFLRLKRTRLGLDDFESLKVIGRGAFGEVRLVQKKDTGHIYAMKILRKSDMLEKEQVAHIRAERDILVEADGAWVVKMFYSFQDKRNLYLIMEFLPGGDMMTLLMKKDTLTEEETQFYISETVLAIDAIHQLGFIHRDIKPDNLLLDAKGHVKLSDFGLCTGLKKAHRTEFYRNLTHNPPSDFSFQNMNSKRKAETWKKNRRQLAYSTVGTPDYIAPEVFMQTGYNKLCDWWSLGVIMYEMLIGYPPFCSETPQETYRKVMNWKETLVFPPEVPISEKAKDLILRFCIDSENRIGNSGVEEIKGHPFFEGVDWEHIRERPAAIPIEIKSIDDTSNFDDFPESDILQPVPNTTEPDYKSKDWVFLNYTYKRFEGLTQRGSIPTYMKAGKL
T1 sequence (P00519 whole entry F317I): as the sequence (P00519 whole entry F317L) above, with L317I counted along it

## Brc1ccc2nccc(Nc3ccc4cn[nH]c4c3)c2c1 [Compound 35, 6-Bromo-N-(1H-indazol-6-yl)quinolin-4-amine]
[1]
  activity at 1 µM: 100%
[2]
  activity at 1 µM: 85%
ABL1-phosphorylated
  activity at 1 µM: 46%
ACVR2A
  activity at 1 µM: 100%
AXL
  activity at 1 µM: 100%
BUB1
  activity at 1 µM: 93%
CASK
  activity at 1 µM: 68%
CSNK1E
  activity at 1 µM: 100%
DMPK2
  activity at 1 µM: 73%
EGFR(L858R)
  activity at 1 µM: 100%
ERBB4
  activity at 1 µM: 100%
ERK8
  activity at 1 µM: 100%
FER
  activity at 1 µM: 96%
GCN2(Kin.Dom.2,S808G)
  activity at 1 µM: 59%
GRK4
  activity at 1 µM: 100%
GSK3B
  activity at 1 µM: 97%
HUNK
  activity at 1 µM: 100%
IRAK3
  activity at 1 µM: 100%
KIT(V559D)
  activity at 1 µM: 100%
LRRK2(G2019S)
  activity at 1 µM: 73%
MAPKAPK5
  activity at 1 µM: 100%
MEK5; 35 at 1 µM, read-out: % inhibition
  activity at 1 µM: 11%
MEK5; KinomeScan, screened at 1 μM, read-out: kinases inhibited at 1 μM: MEK5
  inhibition at 1 µM: 89%
MERTK
  activity at 1 µM: 85%
MET(Y1235D)
  activity at 1 µM: 100%
MKK7
  activity at 1 µM: 100%
MKNK1
  activity at 1 µM: 79%
MLK3
  activity at 1 µM: 100%
MRCKA
  activity at 1 µM: 100%
NDR2
  activity at 1 µM: 89%
PAK2
  activity at 1 µM: 85%
PCTK3
  activity at 1 µM: 100%
PFCDPK1(P.falciparum)
  activity at 1 µM: 63%
PHKG1
  activity at 1 µM: 100%
PIK3C2G
  activity at 1 µM: 100%
PIK3CA(E542K)
  activity at 1 µM: 100%
RIPK1
  activity at 1 µM: 100%
[3]
  activity at 1 µM: 100%
SRPK2
  activity at 1 µM: 100%
SRPK3
  activity at 1 µM: 100%
WNK2
  activity at 1 µM: 100%
WNK4
  activity at 1 µM: 100%
